Test results: patent US5047533A, “Acyclic purine phosphonate nucleotide analogs” (SRI International, priority 1990, dated 1991)
≈ marks a conversion by molar mass, not a printed value.

Tested on: HIV
Test: Antiviral activity versus HIV in lymphoblastoid cells
Format: cell-based
Conditions: Human immunodeficiency virus 1, Lymphoblastoid cell, read-out: ED50 against HIV
Description: The compounds of the invention were evaluated in vitro as antiviral agents against herpes virus and against RNA retrovirus. Various herpes strains were used. An infected B lymphoblastoid cell line was used as HIV substrate to test antiviral activity with respect to RNA retrovirus.
To test antiviral activity versus HIV, the following procedure was used: Infectious HIV was assayed in cell culture as described originally by Barre-Sinoussi et al for isolation of LAV, except that persistently infected lymphoblastoid cells were used instead of mononuclear cells from anti-LAV negative donors. HIV obtained from cell culture was stored in liquid nitrogen in aliquots of RPMI 1640 culture medium with 20% of total calf serum and 20% glycerol and containing 1,000 TCID-50 HIV. The lymphoblastoid cells (10^6) were incubated with 1,000 TCID-50 of HIV obtained from cell cultures, and cells were then cultured in RPMI-1640 medium. Culture medium was changed every 3 days for 3 weeks and the medium for each 3-day period from Day 6 through Day 21 was assayed for viral reverse transcriptase activity by concentrating (pelleting) virus by ultracentrifugation in the 100 place Spinco 25 rotor and assaying pellets for reverse transcriptase (RT) using a ^32 P-dTTP in the presence of dimer-template poly rA-oligo dT. […]

CCOP(=O)(O)CCCOCn1cnc2c(=O)[nH]c(N)nc21 [Compound 2, 9(3'-ethylphosphono-1'-propyloxymethyl)guanine]
EC50: 30 µg/mL (≈ 90.6 µM)
